From article PMC5988656, “Phase I studies of AZD1208, a proviral integration Moloney virus kinase inhibitor in solid and haematological cancers” (British Journal of Cancer, 2018)

Tests used:
[1] = system: patients with AML or advanced solid tumours; assay: Both dose-escalation studies pooled: adverse events; format: in vivo, human
Procedure: Safety and tolerability were assessed from the time of informed consent until the end of follow-up (defined as 30 and 28 days after study treatment was discontinued for the AML and solid tumour studies, respectively) by evaluation of adverse events (AEs), vital signs, ECGs and laboratory assessments. The CTCAE (version 4.0) was utilised to grade all AE events.
AEs were summarised by Medical Dictionary for Regulatory Activities (MedDRA) system organ class, MedDRA preferred term and CTCAE grade. Summary statistics of mean, median, standard deviation, minimum, maximum and number of observations were used.

AML blasts = assay: RPPA protein profiling in AML blasts during therapy; format: in vivo, human; details: samples from six patients
Procedure: In the AML study, a protein profiling analysis was carried out on primary blasts obtained from peripheral blood of patients (n = 6) before and during therapy with AZD1208. Due to time-sensitive aspects of the analysis, only patients from the MD Anderson Cancer Center (MDACC, Houston, TX, USA) were eligible. Whole blood was collected in heparinised tubes. Leukaemia cells were then isolated using Ficoll–Hypaque (specific gravity, 1.086; Life Technologies, Grand Island, NY, USA) density gradient separation, as previously described.[15] Cell number and mean cell volume were determined using a Coulter Channelyzer (Coulter Electronics, Hialeah, FL, USA).
AML blasts isolated from patients during therapy with AZD1208 were harvested and submitted for reverse phase protein array (RPPA) analysis to evaluate protein level changes across a set of 171 antibodies,[16] graphed using GraphPad Prism software (GraphPad Software, Inc., San Diego, CA, USA).

SMILES: N[C@@H]1CCCN(c2c(/C=C3\SC(=O)NC3=O)cccc2-c2ccccc2)C1 [AZD1208]
- Patients who experienced adverse events [1]: 98.5%
- Patients with gastrointestinal adverse events [1]: 92.5%
- Patients with reductions in 4E-BP1 S65 (RPPA) (AML blasts): three
- Patients with reductions in BAD S112 (RPPA) (AML blasts): four
